This is an account of results in article PMC5342446, “Healthy CD4^+ T lymphocytes are not affected by targeted therapies against the PI3K/Akt/mTOR pathway in T-cell acute lymphoblastic leukemia” (Oncotarget, 2016).

Residues, ends and D or L forms follow the SMILES beside them. *: point of attachment. Cbz = O=C(OCc1ccccc1)*; CH2F = FC*

The test system of one assay is stimulated T lymphocytes. Kind of assay: MTT cell viability assay, stimulated (phytohemagglutinin) CD4+ T lymphocytes. It counts as cell-based, human. As to conditions: for effect on cell viability, alone: 24 h; for IC50: Homo sapiens, T-lymphocyte, 48 h, read-out: IC50 values of cells treated for 48 hours. The protocol:
(§1) To determine how these inhibitors could affect the viability of the primary CD4^+ T lymphocytes (both unstimulated and stimulated) and T-ALL cells, we performed MTT assays. […] Except for the unstimulated T lymphocytes, BGT226 and the mTORC1/2 inhibitor Torin-2 turned out to be the most powerful drugs in these cells. For unstimulated T lymphocytes, there was no relevant inhibition for both drugs (IC50 > 2 μM).
(§2) Peripheral Blood CD4+ T lymphocytes from healthy donors were obtained with informed consent according to institutional guidelines and isolated with Ficoll-Paque and magnetic beads labelling protocols (Dynabeads, Monza MI, Italy). Whole blood or buffy coat were diluted with PBS containing 0.1% BSA and 0.6% Na-citrate or 2 mM EDTA (without Ca2+ and Mg2+) in ratio 1:1. Thirty-five ml of the diluted sample were layered over 15 ml of Ficoll-Paque medium and centrifuged at 600 g for 40 minutes at 20°C. The peripheral blood mononuclear cell (PMNC) layer was transferred to centrifuge tube containing three volumes of PBS and centrifuged at 100 g for 10 minutes at 20°C. This step was repeated twice, supernatant was discarded and cells were suspended in complete RPMI-1640 medium.
(§3) 500 μl PMNC were transferred into a test tube, at a density of 5 × 10^7 cells/ml supplemented with100 μl of heat inactivated FBS and antibody mix and incubated at 4°C for 20 minutes. Followed by addition of 4 ml isolation buffer and centrifuged at 350 g at 4°C for 8 minutes. The supernatant discarded, and the pelleted cells were suspended in 500 μl of isolation buffer, added with 500 μl of pre-warmed dynabeads and incubated for 15 min at 20°C. The cells bound to beads were resuspended using 4 ml isolation buffer. The supernatant containing the human CD4^+ T lymphocytes was obtained by placing the resuspended cells in magnet for 2 minutes. The human CD4^+ T lymphocytes were grown in complete RPMI-1640 medium with 10μg/ml phytohemagglutinin at a density of 1 × 10^6 cells/ml, in a CO2 incubator at 37°C for 24 h.
(§4) MTT (3-[4,5-Dimethylthythiazol-2-yl]-2,5-Diphenyltetrazolium Bromide) assays were performed to assess the sensitivity of cells to drugs, as described.
For orientation: Tetrazolium assays rely on reduction of a dye to a coloured formazan, in cell work by metabolically active cells.

In the next assay the test system is JURKAT cells. Kind of assay: MTT cell viability assay, JURKAT. It counts as cell-based, human. As to conditions: for effect on cell viability, alone: 24 h; for IC50: Homo sapiens, 48 h, read-out: IC50 values of cells treated for 48 hours. The protocol: as §1
(§5) T-acute lymphoblastic leukemia cell lines obtained from Deutsche Sammlung von Mikroorganismen und Zellkulturen GmbH (Braunschweig, Germany). JURKAT and MOLT-4 were maintained in RPMI-1640 medium supplemented with 10% heat-inactivated fetal bovine serum (FBS), 100 units/ml penicillin and […] streptomycin at a density of 0.5 to 2 × 10^6 cells/ml and were incubated at 37°C with 5% CO2.
as §4

Assay [1] has as its system unstimulated T lymphocytes. Nature of the assay: MTT cell viability assay, unstimulated CD4+ T lymphocytes. As to conditions: Homo sapiens, T-lymphocyte, 48 h, read-out: IC50 values of cells treated for 48 hours. The assay is classed as cell-based. The protocol: To determine how these inhibitors could affect the viability of the primary CD4^+ T lymphocytes (both unstimulated and stimulated) and T-ALL cells, we performed MTT assays. Cells were incubated for 48 h with the inhibitors, and then cell survival was analyzed (Figure 2A and Table 1). Except for the unstimulated T lymphocytes, BGT226 and the mTORC1/2 inhibitor Torin-2 turned out to be the most powerful drugs in these cells. For unstimulated T lymphocytes, there was no relevant inhibition for both drugs (IC50 > 2 μM).
as §2, §3, §4

The test system of a further assay is MOLT-4 cells. Nature of the assay: MTT cell viability assay, MOLT-4. As to conditions: for IC50: Homo sapiens, MOLT-4, MTT, 48 h, read-out: IC50 values of cells treated for 48 hours. The assay is classed as cell-based, human. The protocol:
as §1, §5, §4

On to `Cn1cnc(N)c2ncnc1-2` [3-MA, 3-Methyladenine], for which the “effect on cell viability, alone” value in the assay with stimulated T lymphocytes (even at 10 μM) and in the assay with JURKAT cells (even at 10 μM) was “did not affect cell viability” in each case.
One may read the IC50 as the point on the concentration scale where inhibition reaches its midpoint. As to `COc1ccc(-c2ccc3ncc4c(c3c2)n(-c2ccc(N3CCNCC3)c(C(F)(F)F)c2)c(=O)n4C)cn1` [BGT226], the concentration for half-maximal inhibition (IC50) in the assay with stimulated T lymphocytes is 1610 nM; in assay [1], above 2000 nM; with JURKAT cells, 80 nM; with MOLT-4 cells, 60 nM.
In the case of `CO/C1=C\C(C)=C\[C@@H](C)[C@@H](O)[C@@H](C)C/C(C)=C/C=C/[C@H](OC)[C@@H]([C@@H](C)[C@@H](O)[C@H](C)[C@@]2(O)C[C@@H](O)[C@H](C)[C@@H](C(C)C)O2)OC1=O` [Bafilomycin A1], the “effect on cell viability, alone” value with stimulated T lymphocytes (even at 4 μM) and in the assay with JURKAT cells (even at 4 μM) was “did not affect cell viability” in each case.
On to `NC1(c2ccc(-c3nc4ccn5c(=O)[nH]nc5c4cc3-c3ccccc3)cc2)CCC1` [MK-2206], for which the IC50 in the assay with stimulated T lymphocytes is above 2000 nM; in assay [1] it was above 2000 nM; in the assay with JURKAT cells it was above 2000 nM; in the assay with MOLT-4 cells it was 1580 nM.
Turning to `Nc1ccc(-c2ccc3ncc4ccc(=O)n(-c5cccc(C(F)(F)F)c5)c4c3c2)cn1` [Torin-2, 9-(6-aminopyridin-3-yl)-1-(3-(trifluoromethyl)phenyl)benzo[h][1,6]naphthyridin-2(1H)-one], the IC50 was 1800 nM in the assay on stimulated T lymphocytes, above 2000 nM in assay [1], 100 nM with JURKAT cells and 100 nM in the assay with MOLT-4 cells.
As to `FC(F)c1nc2ccccc2n1-c1nc(N2CCOCC2)nc(N2CCOCC2)n1` [ZSTK474], the concentration for half-maximal inhibition (IC50) in the assay with stimulated T lymphocytes is above 2000 nM; in assay [1], above 2000 nM; in the assay on JURKAT cells, 950 nM; with MOLT-4 cells it was 520 nM.
Take `COC(=O)C[C@H](NC(=O)[C@H](C)NC(=O)[C@@H](NC(=O)OCc1ccccc1)C(C)C)C(=O)CF` [z-VAD-fmk] (Cbz-Val-Ala-Asp(OMe)-CH2F): the “effect on cell viability, alone” value in the assay with stimulated T lymphocytes (25 μM) was “no relevant effect on cell viability”; with MOLT-4 cells (MOLT-4, alone, 25 μM, 24 h, MTT), “no relevant effect on cell viability”.
